According to US7348178B1, “Recombinant adenoviral vector system” (priority 1994, dated 2008):
“Also recorded” adds a separate entry of the source.

Assays:
Type in all cases: cell-based, human
[1] = tested on: wild type Ad-infected 293 cells; assay: [35S]methionine labeling, SDS-PAGE: Ad shutoff of cell protein synthesis
Experimental: FIG. 7. […] Uninfected and wild type Ad-infected 293 cells were labeled with [^35S]methionine at 24 h post infection and duplicate plates were treated with 10 mM 2AP, added 1 to 2 h after infection. Equal amounts of protein from labeled extracts were analyzed by SDS-polyacrylamide gel electrophoresis and fluorographed. Ad late polypeptides correspond to proteins II, III, IV, V, pIV, pVIII, pVI, and IX.
Cells were labeled with [^35S]methionine for 1 to 2 h by using 50 μCi of trans[^35S]methionine (ICN) per ml in DMEM lacking methionine and supplemented with 2% calf serum. Cell extracts were prepared by sonication of washed cells in 10 mM KC1-10 mM Tris (pH 7.4)−1 mM EDTA at 4° C. and cleared of debris by centrifugation at 10,000 rpm equal amounts of protein were analyzed in sodium dodecyl sulfate (SDS)-polyacrylamide gels. Gels were fluorographed and quantitated by densitometry.
293 cells were treated with 2AP for the duration of infection, starting shortly after the addition of virus. Duplicate plates of cells were then labeled with [^35S]methionine, and extracts were analyzed by SDS-polyacrylamide gel electrophoresis (FIG. 7) or photographed at various times after infection for evidence of CPE (see FIG. 5).

uninfected 293 cells = assay: Drug cytotoxicity in uninfected 293 cells; details: 20 mM 2AP, 48 h posttreatment
[2] = tested on: wild type Ad-infected 293 cells; assay: Ad-induced CPE in infected 293 cells, photographed; details: wild type Ad 50 PFU per cell, 20 mM 2AP added 2 h post infection, 24 and 48 h
Experimental: FIG. 5. Prevention of adenovirus induced CPE and facilitated cell lysis or loss of metabolic function during expression of late viral genes. Cells were infected at 50 PFU per cell with wild type Ad, and 20 mM 2-aminopurine (2AP) was added to duplicate plates 2 h post infection for up to 48 h. Cells were photographed at 24 and 48 h. […] Late Ad polypeptides can therefore be expressed in this system for the duration of several days without facilitating cell lysis and CPE that would limit their expression.
Ad 300 is a wild type strain 5 isolate (H5wl300) originally purified by H. Ginsberg is available through the ATCC. Ad2 ts1 is described in Chen et al., 1993, J. Virol. 67:3507-3514. 293 cells are human embryonic kidney cell line that express the E1 region of Ad5 (Graham et al., 1977, J. Gen. Virol. 36:59-72). 293 and HeLa cells were cultured in Dulbecco's modified Eagle's medium (DMEM) containing 10% calf serum. Virus stocks were grown and titers were determined on 293 cells. RD (human rhabdosarcoma) cells were obtained from the American Type Culture Collection and grown in DMEM containing 15% fetal bovine serum. 2AP was prepared and used as previously described (Huang & Schneider, 1990, PNAS USA 87:7115-7119). Infections of cells with viruses were typically carried out for 1 h with 50 PFU per cell unless otherwise noted. […]

[3] = tested on: cytokeratin network of 293 cells infected with Ad2 ts1; assay: Indirect immunofluorescence of keratin K18 network in Ad2 ts1-infected 293 cells; details: Ad ts1 infection at 39.5° C. plus 2AP, fixed 22 h post infection
Experimental: FIG. 6. […] 293 cells were infected with Ad2 ts1 at 4,000 particles per cell, a 25 plaque forming unit (PFU) per cell equivalent, given the high particle/PFU ratio for this mutant, in the presence or absence of 2AP at 32° C. or 39.5° C. […] Cells were fixed and processed for indirect immunofluorescence, using a keratin K18-specific antibody. Cells infected at 32° C. were fixed at 40 h post infection, cells infected at 39.5° C. were fixed at 22 h post infection. By preventing Ad viral proteolysis of keratin K18, viral induced CPE and early cell lysis can be controlled.
Cells were grown on coverslips, fixed with paraformaldehyde, and permeabilized with Triton X-100. Mouse monoclonal antibodies directed against vimentin were purchased from Boehringer Mannheim Biochemicals. A mouse monoclonal antibody specific for keratins K18 (KS-B17.2) and K1, 5 to 8, 10, 11, and 18 (no. 8.13) were from Sigma Chemical Co. Fluorescein isothiocyanate-conjugated rabbit anti-mouse antibodies were purchased from Sigma. Cells were photographed under visible or ultraviolet light using a Zeiss photomicroscope.
Experiments were performed to test whether coupled shutoff of host protein synthesis and cleavage of cytokeratins truly correlates with development of CPE. […] Cells were infected with […] at permissive (32° C.) and restrictive (39.5° C.) temperatures. […]

Q: `Nc1ncc2[nH]cnc2n1` [2AP, 2-aminopurine] was tested. Which “shutoff of cell protein synthesis / translation” value ([1]; 10 mM 2AP added 1 to 2 h after infection, labeled 24 h post infection) did it give?
A: The value was “prevents the shutoff of translation of cellular and early Ad mRNAs; also recorded: prevent Ad shutoff of cell protein synthesis”.

Q: What about the “levels of cellular polypeptide synthesis and of Ad mRNAs lacking the tripartite leader” value ([1]; 2AP-treated infected 293 cells) of the same compound?
A: Its value is “significantly elevated”.

Q: What about the cytotoxicity (uninfected 293 cells) of the same compound?
A: Its cytotoxicity is “little detectable cytotoxicity”.

Q: What about the “Ad-induced CPE” value [2] of the same compound?
A: Its value is “largely prevented detectable CPE; also recorded: significantly reduced cytopathic effect; also recorded: only slight CPE”.

Q: What about the keratin network integrity [3] of the same compound?
A: Its keratin network integrity is “remarkably well preserved”.
